In patent US4419355A, “Condensed as-triazine derivatives and method of using the same” (Egyt Gyogyszervegyeszeti Gyar, priority 1980, dated 1983):

Assays:
[1] = Acute toxicity on mice (oral); details: mouse, in vivo, p.o., CFLP mice, 20 ml/kg, 4 days observation
Description: The acute toxicity of the new compounds according to the invention was determined on white mice of both sexes weighing 18-24 g belonging to the strain CFLP. Administration was effected with an oral dosage of 20 ml/kg. After treatment the animals were kept under observation for 4 days.

[2] = tested on: tetrabenazine ptosis; experiment: Tetrabenazine antagonism on mice; details: for ED50: Mus musculus, po; for Therapeutic index LD50/ED50: p.o., mice, tetrabenazine antagonism
Description: Groups of animals consisting of 10-20 mice each were examined. A 0.9% sodium chloride solution was administered to the mice of the control group in a dosage of 20 ml/kg. After 30 minutes 50 mg/kg of tetrabenazine were administered. The animals with closed interpalpebral zone were counted 30, 60, 90 and 120 minutes after the administration of the tetrabenazine. The data were summarized and the inhibition in comparison with the control was determined.

[3] = tested on: yohimbine toxicity; experiment: Potentiation of yohimbine toxicity on mice; format: in vivo; details: for ED50: Mus musculus, po; for Therapeutic index LD50/ED50: p.o., mice, yohimbine potentiation
Description: The experiments were carried out by the method of Quinton et al. The test compound was administered orally in a volume of 20 ml/kg half an hour before the administration of the standard yohimbine dose.

[4] = Acute toxicity on rats (oral); details: rat, in vivo, p.o., Wistar rats, 0.5% suspension with carboxymethylcellulose
Description: The acute toxicity was investigated also on Wistar rats. A 0.5% suspension prepared from the test compound and carboxymethylcellulose was administered orally to the animals.

[5] = tested on: tetrabenazine ptosis; experiment: Tetrabenazine ptosis antagonism on rats; format: in vivo; details: for ED50: Rattus norvegicus, read-out: Tetrabenazine ptosis ant. ED50; for Therapeutic index: tetrabenazine ptosis ant.
Description: (§1) The experiments were carried out on the analogy of the tests described at point (a).

[6] = tested on: Reserpine-ethanol narcose; experiment: Reserpine-ethanol narcose antagonism on rats; format: in vivo; details: for ED50: Rattus norvegicus, read-out: Reserpine-ethanol narcose ant. ED50; for Ther. index: reserpine-ethanol narcose ant.
Description: as §1

SMILES	LD50 at 96 h [1]	ED50 [2]	Therapeutic index LD50/ED50 [2]	ED50 [3]	Therapeutic index LD50/ED50 [3]	LD50 [4]	ED50 [5]	Therapeutic index [5]	ED50 [6]	Ther. index [6]
Clc1ccc(-c2ncn[n+]3ccc4ccccc4c23)cc1 [Compound C, 1-(4-chlorophenyl)-as-triazino[6,1-a]-isoquinolinium bromide]	600 mg/kg	3.2 mg/kg	187.5	3.5 mg/kg	171.4	1000 mg/kg	5.6 mg/kg	178.6	40 mg/kg	25.0
c1ccc(-c2ncn[n+]3ccccc23)cc1 [Compound A, 1-phenyl-pyrido[2,1-f]-as-triazinium bromide]	1400 mg/kg	30 mg/kg	46.7	66 mg/kg	21.2					
CN(C)CCC=C1c2ccccc2CCc2ccccc21 [Amitriptylin, reference compound]	225 mg/kg	12 mg/kg	18.75			530 mg/kg	11.5 mg/kg	46.1	40 mg/kg	13.25
Clc1ccc(-c2ncn[n+]3ccccc23)cc1 [Compound B, 1-(4-chlorophenyl)-pyrido[2,1-f]-as-triazinium bromide]	900 mg/kg	14 mg/kg	64.2	50 mg/kg	18.0					
